Patent US9125955B2, “99mTc imaging agents and methods of use” (GENERAL ELECTRIC COMPANY, priority 2012, dated 2015)

Assay: Ligand stability studies (stock solution at room temperature, LC-MS)
Type: physicochemical
Conditions: stock solution ~300 μg in 4 mL DMSO/H2O [1:1 v/v] (water for other ligands), bench top, LC-MS every 24 h, 3 days
Experimental: Ligand stability studies: A stock solution (prepared by dissolving ˜300 μg of ligand in 4 mL of water; in the cases of Compound 2, 4 mL of DMSO/H2O[1:1 v/v] was used) was stored on bench top at room temperature without extra precautions.

C/C(=N\O)C(C)(C)NCCN(CCNC(C)(C)/C(C)=N/O)S(=O)(=O)c1ccc(C)cc1 [Compound 2, N,N-bis(2-((E)-3-(hydroxyimino)-2-methylbutan-2-ylamino)ethyl)-4-methylbenzenesulfonamide]
decomposition of ligand stock solution by LC-MS: no decomposition was observed
